Values of other authors in patent publication US20020155083A1, “Dermal regeneration methods and compositions related thereto in conjunction with laser phototherapy, microdermabrasion and epidermabrasion” (priority 2001, published 2002).
Ends that are not written are not given here.

Columns and labels:
[1] = tested on: BCO, Candida, or Cryptococcus; conditions: immunosuppressed mice infected with BCO
[2] = tested on: C. albicans, Listeria monocytogenes, Pseudomonas aeruginosa, and Serratia marescens; conditions: 5-fluorouracil (5FU)- or morphine-immunosuppressed mice, injection
Candida albicans = conditions: mice, injection
influenza virus = conditions: in combination with amantadine and interferon; mice infected with the influenza virus
interferon (IFN) = conditions: mouse, in vivo

## thymosin α1 (SDAAVDTSSEITTKDLKEKKEVVEEAEN; ends and bridges not checked; UniProt P06454 2-29, looked up) [Tα1]
[1]
  survival rate: increased survival rate
[2]
  protection against opportunistic infections: protect
Candida albicans
  resistance to infection with Candida albicans: increased resistance
Influenza virus
  long term survival: significantly increase
  viral titers in the lungs: reduce viral titers
Interferon (IFN)
  amount of interferon (IFN) produced: significant rise
